From BindingDB's records for doi:10.1021/jm00350a005 (1982)

Assays:
[1] = biological target: 5-hydroxytryptamine receptor 1A/1B/1D/1E/1F/2A/2B/2C/3A/3B/3C/3D/3E/4/5A/6/7; assay: Ability to displace [3H]5-HT binding to 5-hydroxytryptamine receptor using 1 uM LSD as masking ligand, activity is expressed as Kd.
[2] = biological target: 5-hydroxytryptamine receptor 1A/1B/1D/1E/1F/2A/2B/2C/3A/3B/3C/3D/3E/4/5A/6/7; assay: Ability to displace [3H]5-HT binding to 5-hydroxytryptamine receptor site using 1 uM LSD as masking ligand, […].
[3] = biological target: 5-hydroxytryptamine receptor 1A/1B/1D/1E/1F/2A/2B/2C/3A/3B/3C/3D/3E/4/5A/6/7; assay: Ability to displace [3H]5-HT binding from 5-hydroxytryptamine receptor site using 1 uM LSD as masking ligand
[4] = biological target: 5-hydroxytryptamine receptor 1A/1B/1D/1E/1F/2A/2B/2C/3A/3B/3C/3D/3E/4/5A/6/7; assay: Ability to displace [3H]5-HT binding to 5-hydroxytryptamine receptor site using 1 uM LSD as masking ligand

With `CSc1ccc2[nH]cc(CCN(C)C)c2c1` the Kd [1] was 0.043 µM.

`CN(C)CCc1c[nH]c2cc3c(cc12)OCO3` was tested, and the Kd [2] was 8.4 µM.

In the case of `CC(C)N(CCc1c[nH]c2cc3c(cc12)OCO3)C(C)C`, the IC50 [3] is reported as 933 µM.

Compound `CSc1cccc2[nH]cc(CCN(C)C)c12` has an IC50 [4] of 151 µM and a Kd [2] of 8.4 µM.
